Reference: patent US20230064976A1, “AMORPHOUS FORM OR CRYSTALLINE FORM OF 2-INDOLINOLINOLOLYLSPIRONONE COMPOUNDS OR THEIR SALTS, SOLVENT COMPLEXES” (ASCENTAGE PHARMA (SUZHOU) CO., LTD., priority 2020, published 2023)

How the values were obtained:
Format in all cases: physicochemical
[1] = Dynamic Vapour Sorption (DVS) hygroscopicity test; settings: for Weight Gain (80% RH): DVS
Procedure: The instruments used and their parameters are as follows: XPRD—X-ray powder diffraction, using Bruker D8 Advance Diffractometer to characterize solids. Copper target wavelength is 1.54 Å Kα radiation (40 kV, 40 mA), 0-20 goniometer, Mo monochromator, Lynxeye detector, detection angle is 3-40° 2θ/3-30° 20, step size It is 0.02° 20, the speed is 0.2 s/step, and the detection sample weight is >2 mg. TGA—Thermo gravimetric analysis, using TA Instruments Q500 TGA, the detection sample size is 1 mg-10 mg, the common detection method is Hi-Res sensitivity 3.0, Ramp 10.00° C./min, res 5.0 to 150.00° C., Ramp 10.00° C./min to 350° C. DSC—differential scanning calorimetry analysis, using TA Instruments Q200 DSC, the detection sample weight is 0.5 mg-5 mg, the gas flow rate is 40 mL/min, the common detection method is Equilibrate, 20° C., Ramp 10° C./min to 280° C.-300° C. DVS—Dynamic Vapour Sorption analysis, the detection sample weight is 1 mg-10 mg, the gas flow rate is 10 mL/min, the common detection method is equilibrium at 25° C., humidity 0%, isothermal for 90 minutes, if the weight percentage is less than 0.0100, the next isothermal test is aborted for 15.00 minutes, and the 10% step humidity is 80.00% every 90 minutes. If the weight percentage is less than 0.0100, the next isothermal test is aborted for 15.00 minutes, and the step humidity is 10% to 0.00% every 90 minutes. For the above identification and characterization results of XPRD, TGA, DSC, and DVS, please refer to FIG. 1-82, Table 1-15 and related description.
Take about 10 mg of crystalline form XI sample for Dynamic Vapour Sorption (DVS) test. The conclusions are described in Table 23 below.
About 10 mg of amorphous form XVI sample was taken for dynamic moisture adsorption (DVS) test. The conclusions are described in Table 25 below:
Dynamic water sorption (DVS) was performed on hydrobromide and maleate crystalline samples.

[2] = Stability test of crystalline form XI (different temperature and humidity)
Excerpt: Place the sample of Form XI under high temperature, high humidity 75% RH conditions, and sample on Day 0, Day 5, Day 10 and Day 30 to investigate its content, related substances and crystal forms.

[3] = Stability testing of amorphous form XVI (60° C., 90% RH, light)
Procedure: The amorphous XVI sample was placed at 60° C., with high humidity 90% RH, under the light condition (light condition: 4500 Lux), and sampled on Day 0/5/10 to investigate its content, related substances and crystal form.

[4] = Competitive experiment of crystalline form X and crystalline form XI (suspension stirring, XRD); settings: acetone/n-heptane, dichloromethane/n-heptane, acetone/water 1/3 v:v; room temperature 1-3 days
Excerpt: Take an equal amount of crystalline form X and crystalline form XI samples, mix them uniformly, and sample for XRD detection.

[5] = Stability test for salt form screening (maleate crystalline form V; HPLC, XRD)
Procedure: Weigh 30 mg of compound (maleate crystalline form V) into a 8 mL glass bottle, then place it at high temperature (60° C., open), high humidity (room temperature/75% RH, open) and light (room temperature, white light: 6980 lux, ultraviolet 282 μW/cm2), take samples on Day 5/10/30 respectively for testing (HPLC, XRD).

[6] = Day 5—light condition (4500 Lux)
[7] = Day 10—light condition (4500 Lux)

## CCN1C(C(=O)NC23CCC(C(=O)O)(CC2)CC3)C(c2cccc(Cl)c2F)C2(C(=O)Nc3cc(Cl)ccc32)C12CCCCC2.O (stereo not shown) [Form XI]
[1]
  XRPD before and after DVS: Unchanged
  water absorption during storage (conclusion from DVS): not easy to absorb water
  DVS weight change of 0% RH-80% RH: 0.17±0.05%
  Weight Gain (80% RH): 0.01%
[2]; 5 days, 10 days and 30 days, high temperature and high humidity
  content and purity (summary): almost unchanged
[2]; Day 0
  Total impurity content (%): 0.31%
  XPRD: Form XI
  content (%): 99.5%
[2]; Day 5—40° C.
  Total impurity content (%): 0.21%
  content (%): 99.6%
[2]; Day 5—60° C.
  Total impurity content (%): 0.15%
  content (%): 99.1%
[2]; Day 5—75% RH
  Total impurity content (%): 0.16%
  content (%): 99.1%
[2]; Day 10—40° C.
  Total impurity content (%): 0.25%
  XPRD: Form XI
  content (%): 99.1%
[2]; Day 10—60° C.
  Total impurity content (%): 0.25%
  XPRD: Form XI
  content (%): 100.1%
[2]; Day 10—75% RH
  Total impurity content (%): 0.24%
  XPRD: Form XI
  content (%): 99.3%
[2]; Day 30—40° C.
  Total impurity content (%): 0.33%
  XPRD: Form XI
  content (%): 98.9%
[2]; Day 30—75% RH
  Total impurity content (%): 0.32%
  XPRD: Form XI
  content (%): 100.5%

## CCN1C(C(=O)NC23CCC(C(=O)O)(CC2)CC3)C(c2cccc(Cl)c2F)C2(C(=O)Nc3cc(Cl)ccc32)C12CCCCC2 (stereo not shown) [Form XVI]
[1]
  XRPD before and after DVS: Unchanged
  water absorption during storage (conclusion from DVS): not easy to absorb water
  DVS weight change of 0% RH-80% RH: 2.5±0.5%
  Weight Gain (80% RH): 2.32%
[3]; Day 0
  Total impurity content (%): 0.38%
  XPRD: Amorphous
  content (%): 99.4%
[3]; Day 5—60° C.
  Total impurity content (%): 0.48%
  content (%): 101.7%
[3]; Day 5—90% RH
  Total impurity content (%): 0.40%
  content (%): 102.1%
[3]; [6]
  Total impurity content (%): 0.44%
  content (%): 102.4%
[3]; Day 10—60° C.
  Total impurity content (%): 0.54%
  XPRD: Amorphous
  content (%): 99.0%
[3]; Day 10—90% RH
  Total impurity content (%): 0.40%
  XPRD: Amorphous
  content (%): 101.1%
[3]; [7]
  Total impurity content (%): 0.57%
  XPRD: Amorphous
  content (%): 100.4%

## CCN1C(C(=O)NC23CCC(C(=O)O)(CC2)CC3)C(c2cccc(Cl)c2F)C2(C(=O)Nc3cc(Cl)ccc32)C12CCCCC2 (stereo not shown) [crystalline form X]
[1]; 0% RH-60% RH
  DVS water absorption 0% RH-60% RH: < 0.1%
[1]; 60% RH-80% RH
  DVS weight change 60% RH-80% RH: 1.6±0.2%
[4]
  form after stirring mixed sample of form X and form XI (XRD): converted to crystalline form XI

## Br.CCN1C(C(=O)NC23CCC(C(=O)O)(CC2)CC3)C(c2cccc(Cl)c2F)C2(C(=O)Nc3cc(Cl)ccc32)C12CCCCC2 (stereo not shown) [hydrobromide crystalline form VI]
[1]
  Weight Gain (80% RH): 5.1% (hygroscopic)

## CCN1C(C(=O)NC23CCC(C(=O)O)(CC2)CC3)C(c2cccc(Cl)c2F)C2(C(=O)Nc3cc(Cl)ccc32)C12CCCCC2.O=C(O)C=CC(=O)O (stereo not shown) [maleate crystalline form V]
[1]
  XRPD before and after DVS: Unchanged
  Weight Gain (80% RH): 1.2% (slightly
[5]; Day 0
  Total impurity content (%): 1.20%
  XPRD: Form V
[5]; Day 5/10/30, high temperature, high humidity and light
  content and purity (summary): almost unchanged
[5]; Day 5—60° C.
  Total impurity content (%): 1.20%
  XPRD: Form V
[5]; Day 5—75% RH
  Total impurity content (%): 1.10%
  XPRD: Form V
[5]; Day 5—light
  Total impurity content (%): 1.10%
  XPRD: Form V
[5]; Day 10—60° C.
  Total impurity content (%): 1.20%
  XPRD: Form V
[5]; Day 10—75% RH
  Total impurity content (%): 1.20%
  XPRD: Form V
[5]; Day 10—light
  Total impurity content (%): 1.10%
  XPRD: Form V
[5]; Day 30—60° C.
  Total impurity content (%): 1.20%
  XPRD: Form V
[5]; Day 30—75% RH
  Total impurity content (%): 1.10%
  XPRD: Form V
